Earlier results as cited in publication PMC4381587, “A novel PI3K inhibitor PIK-C98 displays potent preclinical activity against multiple myeloma” (Oncotarget, 2014).

Columns and labels:
[1] = tested on: relapsed chronic lymphocytic leukemia; design: method as in PMID 24450857, PMID 24450858; details: phase II, single agent; cited from earlier work
[2] = tested on: relapsed indolent lymphoma; design: method as in PMID 24450857, PMID 24450858; details: phase II, single agent; cited from earlier work

## CC[C@H](Nc1ncnc2[nH]cnc12)c1nc2cccc(F)c2c(=O)n1-c1ccccc1 [idelalisib]
[1]
  overall complete rate: 72%
[2]
  total response rate: 57%
